Results on 5 molecules are retold here after ChEMBL document CHEMBL5550207, “Alkaline Phosphatase Activated Near-Infrared Frequency Upconversion Photosensitizers for Tumor Photodynamic Therapy” (J Med Chem, 2024).

For series [1], the system named is A549. Briefly: Phototoxicity in human A549 cells assessed as cell viability at upto 20 uM pre-irradiated with 808nm laser 1.5 W/cm2 for 10 mins and measured after 12 hrs by MTT assay relative to control. It counts as functional. To be noted: time 730 min, 12.17 h, up to 20 µM.
Series [2] relates to A549. Briefly: Phototoxicity in human A549 cells assessed as reduction in cell viability at upto 20 uM preincubated for 1 hr followed by light irradiation with 808nm laser 1.5 W/cm2 for 10 mins and measured after 4 hrs by Live/Dead dye staining assay. It counts as functional, cell-based. The following applies: time 310.0 min.
In series [3] the test system is A549. Briefly: Induction of singlet oxygen production in human A549 cells at 10 uM preincubated for 65 mins followed by light irradiation with 808nm laser 1.5 W/cm2 for 10 mins by DCF-DA staining based confocal microscopy analysis. To be noted: time 75.0 min. The format is functional, cell-based.
Series [4] relates to A549. Briefly: Induction of apoptosis in human A549 cells under light irradiation with 808nm laser 1.5 W/cm2 for 10 mins by annexin V-FITC/propidium iodide staining based flow cytometry. It counts as functional, cell-based. For orientation: A flow cytometer gives signals particle by particle.
The subject of series [5] is A549. Briefly: Phototoxicity in human A549 cells assessed as cell viability at 20 uM pre-irradiated with 808nm laser 1.5 W/cm2 for 10 mins and measured after 12 hrs by MTT assay relative to control. It counts as functional. To be noted: A549, light or radiation study, 12.17 h, time 730 min, read-out: Activity. (Tetrazolium assays rely on reduction of a dye to a coloured formazan, in cell work by metabolically active cells.)

Series [6] has as its system A549. Briefly: Phototoxicity in human A549 cells assessed as cell viability at 10 uM pre-irradiated with 808nm laser 1.5 W/cm2 for 10 mins and measured after 12 hrs by MTT assay relative to control. It counts as functional. To be noted: A549, light or radiation study, 12.17 h, time 730 min, read-out: Activity.
The next series concerns L02. Briefly: Photosensitization activity against human L02 cells overexpressing ALP assessed as increase in fluorescence intensity at 10 uM pretreated with MgCl2 for 1 hr followed by compound addition by confocal fluorescent imaging based analysis. It counts as functional, cell-based.
Series [7] relates to A549. Briefly: Antitumor activity against human A549 cells xenografted in BALB/c mouse model assessed as reduction in fluorescence in lung at 300 uM, iv measured after 120 mins. The format is functional, organism-based.
For series [8], the system named is A549. Briefly: Antitumor activity against human A549 cells xenografted in BALB/c mouse model assessed as reduction in fluorescence in heart at 300 uM, iv measured after 120 mins. It counts as functional, organism-based. (In general: Xenograft models place foreign cells or tissue in a host animal.)
The subject of series [9] is HeLa. Briefly: Phototoxicity in human HeLa cells assessed as decrease in survival rate at 10 uM pre-irradiated with 808nm laser 1.5 W/cm2 for 10 mins and measured after 12 hrs by MTT assay relative to control. It counts as functional. To be noted: light or radiation study, 12.17 h, time 730 min, read-out: Survival.
Series [10] can be described thus: Toxicity in BALB/c mouse assessed as effect on spleen at 300 uM, iv pre-irradiated with 808nm laser 1.5 W/cm2 for 10 mins and measured after 14 days by H and E staining based analysis. The format is organism-based. To be noted: in vivo, 336 h, time 14 day.
The subject of series [11] is A549. Briefly: Photosensitization activity against human A549 cells overexpressing ALP assessed as increase in fluorescence intensity at 10 uM measured upto 60 mins by confocal fluorescent imaging based analysis. The format is functional, cell-based.
Series [12] concerns A549. Briefly: Phototoxicity in human A549 cells assessed as decrease in survival rate at 10 uM pre-irradiated with 808nm laser 1.5 W/cm2 for 10 mins and measured after 12 hrs by MTT assay relative to control. It counts as functional. To be noted: A549, light or radiation study, 12.17 h, time 730 min, read-out: Survival.
Series [13] can be described thus: Toxicity in BALB/c mouse assessed as effect on heart at 300 uM, iv pre-irradiated with 808nm laser 1.5 W/cm2 for 10 mins and measured after 14 days by H and E staining based analysis. The format is organism-based. To be noted: in vivo, 336 h, time 14 day.
Series [14] deals with HeLa. Briefly: Phototoxicity in human HeLa cells assessed as decrease in survival rate at upto 10 uM pre-irradiated with 808nm laser 1.5 W/cm2 for 10 mins and measured after 12 hrs by MTT assay. The format is functional, cell-based. The following applies: time 730.0 min.
In series [15] the test system is A549. Briefly: Photosensitization activity against human A549 cells overexpressing ALP assessed as increase in fluorescence intensity at 10 uM pretreated with Na3VO4 for 1 hr followed by compound addition and measured upto 60 mins by confocal fluorescent imaging based analysis. The format is functional, cell-based. The following applies: time <= 60.0 […].
In series [16] the test system is A549. Briefly: Antimigratory activity against human A549 cells measured upto 18 hrs by wound healing assay. It counts as functional, cell-based.
The subject of series [17] is A549. Briefly: Phototoxicity in human A549 cells assessed as reduction in cell viability at 10 uM preincubated for 1 hr followed by light irradiation with 808nm laser 1.5 W/cm2 for 10 mins and measured after 4 hrs in presence of Na3VO4 by Live/Dead dye staining assay. The format is functional, cell-based. To be noted: time 310.0 min.
The test system of series [18] is HeLa. Briefly: Cytotoxicity against human HeLa cells assessed as survival rate measured after 12 hrs relative to control. It counts as functional.
A short description of series [19]: Toxicity in BALB/c mouse assessed as effect on liver at 300 uM, iv pre-irradiated with 808nm laser 1.5 W/cm2 for 10 mins and measured after 14 days by H and E staining based analysis. To be noted: in vivo, 336 h, time 14 day. The format is organism-based.
Series [20] in a line: Toxicity in BALB/c mouse assessed as effect on tumor at 300 uM, iv pre-irradiated with 808nm laser 1.5 W/cm2 for 10 mins and measured after 14 days by H and E staining based analysis. The format is organism-based. The following applies: in vivo, 336 h, time 14 day.
The subject of series [21] is A549. Briefly: Antitumor activity against human A549 cells xenografted in BALB/c mouse model assessed as inhibition of tumor growth at 300 uM, iv pre-irradiated with 808nm laser 1.5 W/cm2 for 10 mins and measured daily for 14 days. The format is functional, organism-based. The following applies: time 14.0 day.
In series [22] the test system is A549. Briefly: Antitumor activity against human A549 cells xenografted in BALB/c mouse model assessed as reduction in fluorescence in liver at 300 uM, iv measured after 120 mins. It counts as functional, organism-based.
Series [23] can be described thus: Toxicity in BALB/c mouse assessed as effect on body weight loss at 300 uM, iv pre-irradiated with 808nm laser 1.5 W/cm2 for 10 mins and measured after 14 days by H and E staining based analysis. The format is organism-based. To be noted: in vivo, 336 h, time 14 day.
The subject of series [24] is A549. Briefly: Phototoxicity in human A549 cells assessed as decrease in survival rate at upto 10 uM pre-irradiated with 808nm laser 1.5 W/cm2 for 10 mins and measured after 12 hrs by MTT assay. The format is functional, cell-based. The following applies: time 730.0 min.
A short description of series [25]: Toxicity in BALB/c mouse assessed as effect on kidney at 300 uM, iv pre-irradiated with 808nm laser 1.5 W/cm2 for 10 mins and measured after 14 days by H and E staining based analysis. It counts as organism-based. The following applies: in vivo, 336 h, time 14 day.
The subject of series [26] is A549. Briefly: Antitumor activity against human A549 cells xenografted in BALB/c mouse model assessed as decrease in fluorescence signal at 300 uM, iv measured upto 120 mins. It counts as functional, organism-based.
The test system of series [27] is A549. Briefly: Antitumor activity against human A549 cells xenografted in BALB/c mouse model assessed as reduction in fluorescence in kidney at 300 uM, iv measured after 120 mins. The format is functional, organism-based.
Series [28] is described as follows: Cytotoxicity against human L02 cells assessed as survival rate measured after 12 hrs by MTT assay relative to control. It counts as toxicity, cell-based. To be noted: read-out: Survival.
For series [29], the system named is A549. Briefly: Cytotoxicity against human A549 cells assessed as survival rate measured after 12 hrs relative to control. It counts as functional.
In series [30] the test system is A549. Briefly: Induction of singlet oxygen production in human A549 cells assessed as increase in fluorescent signal at 10 uM preincubated for 65 mins followed by light irradiation with 808nm laser 1.5 W/cm2 for 10 mins in presence of Na3VO4 by DCF-DA staining based confocal microscopy analysis. It counts as functional, cell-based. The following applies: time 75.0 min.

Series [31] deals with A549. Briefly: Antitumor activity against human A549 cells xenografted in BALB/c mouse model assessed as reduction in fluorescence in spleen at 300 uM, iv measured after 120 mins. The format is functional, organism-based.
The nature of series [32]: Toxicity in BALB/c mouse assessed as effect on lung at 300 uM, iv pre-irradiated with 808nm laser 1.5 W/cm2 for 10 mins and measured after 14 days by H and E staining based analysis. It counts as organism-based. To be noted: in vivo, 336 h, time 14 day.
Series [33] in a line: Induction of singlet oxygen production of the compound assessed as decrease in DPBF absorbance under laser irradiation with 808nm laser 1.5 W/cm2 for upto 15 mins in presence of alkaline phosphatase. The following applies: isolated protein, 0.25 h. The format is physicochemical.

Calls of active or inactive are those of the source. No cut-off for these calls is given here. A value given as a limit tells only on which side of the number the result lay.

In the case of `CC[N+]1=C(/C=C/C2=C3Oc4cc(O)ccc4C=C3CCC2)C(C)(C)c2cc(Br)ccc21.[I-]`, the Activity in the series with A549 [1] is greater than 85%.

For `CC[N+]1=C(/C=C/C2=C3Oc4cc(O)c(Br)cc4C=C3CCC2)C(C)(C)c2cc(Br)ccc21`, the result with A549 [2], in the series with A549 [3] and in the series with A549 [4] was Active. Also, the viability at 20 µM with A549 [5] was less than 20%. Besides, in the series with A549 [6], the viability at 10 µM stood at 40%.

In the case of `CC[N+]1=C(/C=C/C2=C3Oc4cc(OP(=O)(O)O)c(Br)cc4C=C3CCC2)C(C)(C)c2cc(Br)ccc21.[I-]`, the result in the series with L02, with A549 [7], with A549 [8], in the series with A549 [11], in the series on HeLa [14] and in the series on A549 [3] was Active. In addition, the result in the series on A549 [17], in the series with A549 [4], in the series on A549 [22], with A549 [24], in the series on A549 [27] and with A549 [31] was Active. Further, the viability at 10 µM in the series on HeLa [9] and in the series on A549 [12] was less than 40% in each case. The Activity result in [10], in [13], in [19], in series [20], in series [23] and in [25] was “Non-Toxic” throughout. Further, the results for the Activity entry in [32] and in series [33] were “Non-Toxic” and “Active”, respectively. Besides, the outcome in the series with A549 [15], with A549 [16], with A549 [26] and in the series on A549 [30] was inactive. For the same molecule, the Survival in the series with HeLa [18] and with A549 [29] was greater than 85% each time. For the same molecule, the AC30 entry in the series on A549 [21] was “Active”. Further, the viability at 12 h in [28] is greater than 85%.

Regarding `CC[N+]1=C(/C=C/C2=C3Oc4cc(O)ccc4C=C3CCC2)C(C)(C)c2ccccc21.[I-]`, the Activity in the series with A549 [1] is greater than 85%.

Turning to `CC[N+]1=C(/C=C/C2=C3Oc4cc(O)c(Br)cc4C=C3CCC2)C(C)(C)c2ccccc21.[I-]`, the Activity with A549 [1] is given as greater than 85%.
